Results on three compounds are retold here after patent publication US6818667B2, “Eurotinones, and derivatives thereof, processes for preparing them, and their use” (Aventis Pharma Deutschland GmbH, priority 2001, dated 2004).

The structures appear in SMILES notation.

KDR kinase (VEGF receptor), sequence (P35968 20-1356): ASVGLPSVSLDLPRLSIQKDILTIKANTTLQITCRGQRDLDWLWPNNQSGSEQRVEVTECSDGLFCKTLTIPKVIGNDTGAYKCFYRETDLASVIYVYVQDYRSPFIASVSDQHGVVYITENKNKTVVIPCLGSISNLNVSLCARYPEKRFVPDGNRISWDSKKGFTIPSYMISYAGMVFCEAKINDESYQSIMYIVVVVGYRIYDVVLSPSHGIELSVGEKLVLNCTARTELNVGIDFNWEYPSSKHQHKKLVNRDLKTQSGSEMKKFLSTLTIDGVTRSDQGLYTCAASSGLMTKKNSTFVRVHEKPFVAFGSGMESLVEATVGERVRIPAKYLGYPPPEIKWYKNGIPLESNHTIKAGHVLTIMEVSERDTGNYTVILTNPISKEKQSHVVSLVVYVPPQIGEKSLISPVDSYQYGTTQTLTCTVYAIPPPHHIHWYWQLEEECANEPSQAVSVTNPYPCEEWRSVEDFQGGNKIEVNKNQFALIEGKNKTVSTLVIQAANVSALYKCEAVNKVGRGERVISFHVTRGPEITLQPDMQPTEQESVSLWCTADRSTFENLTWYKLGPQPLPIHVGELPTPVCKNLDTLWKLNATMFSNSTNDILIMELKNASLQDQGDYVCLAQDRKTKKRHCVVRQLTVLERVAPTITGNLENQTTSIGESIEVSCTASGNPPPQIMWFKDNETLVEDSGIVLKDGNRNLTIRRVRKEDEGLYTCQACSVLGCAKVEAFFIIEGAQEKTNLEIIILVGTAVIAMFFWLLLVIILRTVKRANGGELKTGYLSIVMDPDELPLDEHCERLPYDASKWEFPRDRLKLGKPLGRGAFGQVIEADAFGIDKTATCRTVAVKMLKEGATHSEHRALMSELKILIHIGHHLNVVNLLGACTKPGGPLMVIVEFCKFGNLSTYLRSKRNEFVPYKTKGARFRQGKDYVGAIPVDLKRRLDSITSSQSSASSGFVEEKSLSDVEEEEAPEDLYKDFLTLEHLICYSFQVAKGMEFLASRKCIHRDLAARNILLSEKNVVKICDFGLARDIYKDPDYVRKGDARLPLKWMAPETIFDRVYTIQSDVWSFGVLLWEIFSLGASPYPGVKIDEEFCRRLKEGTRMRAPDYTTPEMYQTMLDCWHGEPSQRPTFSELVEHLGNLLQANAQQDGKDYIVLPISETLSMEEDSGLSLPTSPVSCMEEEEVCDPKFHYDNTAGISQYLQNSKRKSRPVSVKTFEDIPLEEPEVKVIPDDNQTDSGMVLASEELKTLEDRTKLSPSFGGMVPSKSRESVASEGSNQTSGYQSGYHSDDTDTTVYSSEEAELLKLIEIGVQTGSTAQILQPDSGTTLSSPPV

In the assay the target is KDR kinase (VEGF receptor) (Homo sapiens, UniProt P35968). Kind of assay: KDR kinase activity assay (FlashPlate, 33P-ATP phosphorylation of peptide substrate PLCγ1). It counts as biochemical. As to conditions: purified enzyme, 5 μM cold ATP, pH 7.4, RT 1 h. The procedure:
The tyrosine kinase receptor KDR is the test target. KDR plays a key role in the growth of endothelium and in angiogenesis and is consequently also involved in the development of tumors. KDR is consequently an important therapeutic target molecule for cancer diseases and other proliferative diseases. In the test, the activity of the KDR kinase is measured on the basis of the phosphorylation of a specific peptide substrate.
The KDR kinase was determined using purified enzyme in 384-well microtiter plates (Coated FlashPlates, NEN Life Science). The enzyme activities were determined by means of phosphorylating a specific peptide substrate. A previously prepared series of dilutions of the eurotinones having concentrations of 100, 50, 25, 12.5, 6.25, 3.125, 1.5625, 0.7813, 0.3906, 0.195, 0.094, 0.047 and 0 μM were pipetted, in the corresponding order, into the experimental assays. The reaction mixture (radioactively labeled ATP, buffer solution at pH 7.4 and enzyme solutions) was then added and the whole was incubated at RT for 1 h.
Enzyme: KDR kinase (VEGF receptor)
50 mM MOPS, pH7.4, 10 mM MgCl2, 2 mM DTT, 2.5 mM EDTA,
ATP solution: 25μCi of ^33P-γ-ATP/ml and 12.5 μM cold ATP
KDR enzyme solution: 3.5 μg/ml in kinase buffer
384-well FlashPlates were coated, at […] and overnight, with 60 μl (1.2 μg/well) of the peptide substrate and then washed 3×with in each case 80 μl of PBS. The plates which had been coated in this way can be stored for a relatively short time at 4° C. and for a longer period at −20° C. […]
The plates were subsequently washed three times with 75 μl of washing solution in each case and the radioactivity is measured over 30 seconds in a MicroBeta counter (Wallac). […]
The activity of the KDR kinase was measured by way of the incorporation of radioactive phosphate from ATP into the substrate, and the inhibitory effect of the eurotinone (IC50) was calculated from this incorporation.
The inhibition was calculated as: […]
`COc1cc(O)cc2c1OC(=O)c1c(OC)cc(C)c(O)c1C2` [2,12-dimethyleurotinone (compound 2), 2,12-dimethyleurotinone] came in with an IC50 of 155 µM.
`COc1cc(O)cc2c1OC(=O)c1c(O)cc(C)c(O)c1C2` [2-methyleurotinone (compound 3), 2-methyleurotinone] returned an IC50 of 18 µM.
Regarding `Cc1cc(O)c2c(c1O)Cc1cc(O)cc(O)c1OC2=O` [eurotinone (compound 1), eurotinone], half-maximal inhibition (IC50) was put at 22 µM.

Broadly, the IC50 is the concentration needed to halve the response being measured.
